Laboratory results from ChEMBL document CHEMBL3885881, “DrugMatrix”.

Species: Rattus norvegicus
Experiment: DrugMatrix - Regimen: Daily Repeat
Type: toxicity, organism-based, Sprague-Dawley
Set-up: regimen Daily Repeat, gender Male, age 6-8 weeks
Conditions: in vivo, ip, 60 mg/kg, route intraperitoneal, dose level High, vehicle 100 % PBS; for BASOPHIL / EOSINOPHIL / ERYTHROCYTE COUNT / HEMATOCRIT / HEMOGLOBIN / LEUKOCYTE COUNT / LYMPHOCYTE / MEAN CORPUSCULAR HEMOGLOBIN / MEAN CORPUSCULAR HEMOGLOBIN CONCENTRATION / MEAN CORPUSCULAR VOLUME / MONOCYTE / NEUTROPHIL / PLATELET COUNT: tissue Blood; for ALANINE AMINOTRANSFERASE / ALBUMIN / ALKALINE PHOSPHATASE / ASPARTATE AMINOTRANSFERASE / BLOOD UREA NITROGEN / CARBON DIOXIDE / CHLORIDE / CHOLESTEROL / CREATINE PHOSPHOKINASE / CREATININE / GLUCOSE / LACTATE DEHYDROGENASE / LIPASE / PHOSPHORUS / POTASSIUM / SODIUM / TOTAL BILIRUBIN / TOTAL PROTEIN / URIC ACID: tissue Plasma

C[C@H]1C(=O)O[C@@H]2CCN3CC=C(COC(=O)[C@](C)(O)[C@]1(C)O)[C@H]23 [MONOCROTALINE]
BASOPHIL (72 h, time 3 day): 1.7% | EOSINOPHIL (72 h, time 3 day): 1% | ERYTHROCYTE COUNT (72 h, time 3 day): 6.77 x10E6/uL | HEMATOCRIT (72 h, time 3 day): 46.53% | HEMOGLOBIN (72 h, time 3 day): 14.7 G/DL | LEUKOCYTE COUNT (72 h, time 3 day): 8.87 x10E3/uL | LYMPHOCYTE (72 h, time 3 day): 84.3% | MEAN CORPUSCULAR HEMOGLOBIN (72 h, time 3 day): 21.73 pg | MEAN CORPUSCULAR HEMOGLOBIN CONCENTRATION (72 h, time 3 day): 31.63 G/DL | MEAN CORPUSCULAR VOLUME (72 h, time 3 day): 68.73 fL | MONOCYTE (72 h, time 3 day): 1.9% | NEUTROPHIL (72 h, time 3 day): 9.57% | PLATELET COUNT (72 h, time 3 day): 1156.67 x10E3/uL | ALANINE AMINOTRANSFERASE (72 h, time 3 day): 33.67 u/L | ALBUMIN (72 h, time 3 day): 4.27 G/DL | ALKALINE PHOSPHATASE (72 h, time 3 day): 425.33 u/L | ASPARTATE AMINOTRANSFERASE (72 h, time 3 day): 77.33 u/L | BLOOD UREA NITROGEN (72 h, time 3 day): 16 mg/dL | CARBON DIOXIDE (72 h, time 3 day): 30 mmol/L | CHLORIDE (72 h, time 3 day): 104.33 MEQ/L | CHOLESTEROL (72 h, time 3 day): 79 mg/dL | CREATINE PHOSPHOKINASE (72 h, time 3 day): 394.33 u/L | CREATININE (72 h, time 3 day): 0.47 mg/dL | GLUCOSE (72 h, time 3 day): 166.33 mg/dL | LACTATE DEHYDROGENASE (72 h, time 3 day): 66 u/L | LIPASE (72 h, time 3 day): 14.67 u/L | PHOSPHORUS (72 h, time 3 day): 12.57 mg/dL | POTASSIUM (72 h, time 3 day): 7.2 MEQ/L | SODIUM (72 h, time 3 day): 148.33 MEQ/L | TOTAL BILIRUBIN (72 h, time 3 day): 0.47 mg/dL | TOTAL PROTEIN (72 h, time 3 day): 6.57 G/DL | URIC ACID (72 h, time 3 day): 1.77 mg/dL | BASOPHIL (120 h, time 5 day): 0.4% | EOSINOPHIL (120 h, time 5 day): 0.6% | ERYTHROCYTE COUNT (120 h, time 5 day): 7.1 x10E6/uL | HEMATOCRIT (120 h, time 5 day): 48.3% | HEMOGLOBIN (120 h, time 5 day): 14.93 G/DL | LEUKOCYTE COUNT (120 h, time 5 day): 10.69 x10E3/uL | LYMPHOCYTE (120 h, time 5 day): 91.33% | MEAN CORPUSCULAR HEMOGLOBIN (120 h, time 5 day): 21.03 pg | MEAN CORPUSCULAR HEMOGLOBIN CONCENTRATION (120 h, time 5 day): 30.93 G/DL | MEAN CORPUSCULAR VOLUME (120 h, time 5 day): 68.03 fL | MONOCYTE (120 h, time 5 day): 1.63% | NEUTROPHIL (120 h, time 5 day): 5.2% | PLATELET COUNT (120 h, time 5 day): 1323.67 x10E3/uL | ALANINE AMINOTRANSFERASE (120 h, time 5 day): 48 u/L | ALBUMIN (120 h, time 5 day): 4.1 G/DL | ALKALINE PHOSPHATASE (120 h, time 5 day): 488 u/L | ASPARTATE AMINOTRANSFERASE (120 h, time 5 day): 69 u/L | BLOOD UREA NITROGEN (120 h, time 5 day): 13 mg/dL | CARBON DIOXIDE (120 h, time 5 day): 30 mmol/L | CHLORIDE (120 h, time 5 day): 108 MEQ/L | CHOLESTEROL (120 h, time 5 day): 65.67 mg/dL | CREATINE PHOSPHOKINASE (120 h, time 5 day): 139 u/L | CREATININE (120 h, time 5 day): 0.23 mg/dL | GLUCOSE (120 h, time 5 day): 152.33 mg/dL | LACTATE DEHYDROGENASE (120 h, time 5 day): 44.67 u/L | LIPASE (120 h, time 5 day): 13.33 u/L | PHOSPHORUS (120 h, time 5 day): 14.7 mg/dL | POTASSIUM (120 h, time 5 day): 6.77 MEQ/L | SODIUM (120 h, time 5 day): 155 MEQ/L | TOTAL BILIRUBIN (120 h, time 5 day): 0.2 mg/dL | TOTAL PROTEIN (120 h, time 5 day): 6.33 G/DL | URIC ACID (120 h, time 5 day): 1.63 mg/dL | BASOPHIL ([…], time 14 day): 0.38% | EOSINOPHIL ([…], time 14 day): 0.48% | ERYTHROCYTE COUNT ([…], time 14 day): 8.25 x10E6/uL | HEMATOCRIT ([…], time 14 day): 49.54% | HEMOGLOBIN ([…], time 14 day): 16.32 G/DL | LEUKOCYTE COUNT ([…], time 14 day): 14.35 x10E3/uL | LYMPHOCYTE ([…], time 14 day): 85.94% | MEAN CORPUSCULAR HEMOGLOBIN ([…], time 14 day): 19.8 pg | MEAN CORPUSCULAR HEMOGLOBIN CONCENTRATION ([…], time 14 day): 32.96 G/DL | MEAN CORPUSCULAR VOLUME ([…], time 14 day): 60.04 fL | MONOCYTE ([…], time 14 day): 1.94% | NEUTROPHIL ([…], time 14 day): 9.64% | PLATELET COUNT ([…], time 14 day): 1232.8 x10E3/uL | ALANINE AMINOTRANSFERASE ([…], time 14 day): 40.6 u/L | ALBUMIN ([…], time 14 day): 4.46 G/DL | ALKALINE PHOSPHATASE ([…], time 14 day): 403.4 u/L | ASPARTATE AMINOTRANSFERASE ([…], time 14 day): 73.6 u/L | BLOOD UREA NITROGEN ([…], time 14 day): 15.2 mg/dL | CARBON DIOXIDE ([…], time 14 day): 30.8 mmol/L | CHLORIDE ([…], time 14 day): 102.2 MEQ/L | CHOLESTEROL ([…], time 14 day): 89.2 mg/dL | CREATINE PHOSPHOKINASE ([…], time 14 day): 155.8 u/L | CREATININE ([…], time 14 day): 0.44 mg/dL | GLUCOSE ([…], time 14 day): 145 mg/dL | LACTATE DEHYDROGENASE ([…], time 14 day): 118.6 u/L | LIPASE ([…], time 14 day): 18.2 u/L | PHOSPHORUS ([…], time 14 day): 9.42 mg/dL | POTASSIUM ([…], time 14 day): 6.64 MEQ/L | SODIUM ([…], time 14 day): 148.8 MEQ/L | TOTAL BILIRUBIN ([…], time 14 day): 0.56 mg/dL | TOTAL PROTEIN ([…], time 14 day): 7.2 G/DL | URIC ACID ([…], time 14 day): 2.16 mg/dL
